Data taken from patent US20260199426A1, “CYCLIC LIPOPEPTIDE ANTIBIOTIC COMPOUNDS FOR USE IN THE TREATMENT OF PROTEIN AGGREGATION DISEASE” (DEUTSCHES ZENTRUM FÜR NEURODEGENERATIVE ERKRANKUNGEN E. V., priority 2022, published 2026).
*1 amine or outer side, *2 acyl side, *3 side chain or, on linkers, in order; H or OH if unused. Where a SMILES comes first, the peptide text is derived from it. Bridges are numbered along the chain shown (N, C = ends). [ ]: non-standard residue; d: D form. The star is where a group is joined. ξ: configuration not given here. X2 = O=C(C(N[*:1])c1ccc(OC2OC(CO)C(O)C(O)C2OC2OC(CO)C(O)C(O)C2O)cc1)[*:2]; Undeca(2Z,4E)dienoyl(10-Me) = CC(C)CCCC/C=C/C=C\C(=O)*; Octa(2Z,4E)dienoyl(7-Me) = CC(C)C/C=C/C=C\C(=O)*; X5 = O=C(C(N[*:1])c1cc(Cl)c(O)c(Cl)c1)[*:2]; ξPhg(3-Cl-4-OH) = NC(C(=O)O)c1ccc(O)c(Cl)c1; X1 = NC(=O)C(O[*:3])C(N[*:1])C(=O)[*:2]; X4 = N=C1NCC(CC(N[*:1])C(=O)[*:2])N1; Hpg = N[CH](C(=O)O)c1ccc(O)cc1; X3 = CCC(C)CCCC/C=C/C=C\C(=O)*; Cit = NC(=O)NCCC[CH](N)C(=O)O; Orn = NCCC[CH](N)C(=O)O; X6 = Cc1ccccc1CC(=O)*

What was measured:
[1] = tested on: Tau aggregation in HEK biosensor cells (TauRD^LM-GFP); conditions: induced by cell lysate containing Tau aggregates; 0.25 μM to 40 μM, 22 h, lipofectamine
[2] = biological target: N-terminally acetylated alpha-synuclein (Asyn) (Homo sapiens, UniProt P37840); test: Seeded α-synuclein aggregation assay (ThT fluorescence, TEM); format: biochemical; conditions: for in vitro aggregation of alpha-synuclein (ThT fluorescence): 3-fold excess of compound, 25 μM Asyn monomers, 1% (v/v) fibril seeds, 37° C.; for Asyn fibril morphology (TEM) / Asyn oligomer formation (TEM): compound/Asyn mixtures
Description: (§1) (A, B) Thioflavin-T (ThT) fluorescence curves of N-terminally acetylated alpha-synuclein (Asyn) in the absence (cross) and presence of a 3-fold excess (white circles) of compound. […] Quantitative analysis of Asyn aggregation kinetics was performed by nonlinear regression with sigmoidal fitting to determine the midpoint value (Tm) of the fluorescence curve as well as the fluorescence span. Unpaired two-tailed t-test was performed to test the null hypothesis (p≤0.0332(*), p≤0.002(**), p≤0.0002 (***), p≤0.0001 (****)). […] (C) TEM imaging analysis of the compound/Asyn mixtures. Scale bars correspond to 200 nm.
as §1, with “ThT” for “Thioflavin-T (ThT)”, “circles or triangles)” for “circles)”
(A) ThT fluorescence curves of N-terminally acetylated alpha-synuclein (Asyn) in the absence (cross) and presence of a 3-fold excess (white circles) of compound. […] Quantitative analysis of Asyn aggregation kinetics was performed by nonlinear regression with sigmoidal fitting to determine the midpoint value (Tm) of the fluorescence curve as well as the fluorescence span.
Asyn protein stock solutions were prepared in 50 mM HEPES at pH 7.4 with 100 mM NaCl. Stocks of compounds were prepared in the same buffer (500 μM) or as 10 mM compound in DMSO. […] The microplate was likewise subjected to the incubation and fluorescence measurement program used in in vitro assay 1. After about 2-4 days of incubation, ThT fluorescence emission reached the maximal value and the Asyn fibril-containing mixture was collected as “fibril seed” mixture for subsequent Asyn aggregation experiments.

[3] = biological target: T1, amylin (human islet amyloid polypeptide or hIAPP) (Homo sapiens, UniProt P10997); test: Amylin aggregation assay (ThT); format: biochemical; conditions: 5 μM hIAPP monomers, various doses, 37° C.
T1 construct: 5 μM amylin (human islet amyloid polypeptide or hIAPP) monomers
T1 sequence (P10997 34-70 limits assumed): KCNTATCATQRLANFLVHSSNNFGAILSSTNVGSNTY

[4] = biological target: bovine serum albumin (BSA) (Bos taurus, UniProt P02769); conditions: Shivani A et al. 2020; cited from earlier work
Sequence of bovine serum albumin (BSA) (P02769 25-607): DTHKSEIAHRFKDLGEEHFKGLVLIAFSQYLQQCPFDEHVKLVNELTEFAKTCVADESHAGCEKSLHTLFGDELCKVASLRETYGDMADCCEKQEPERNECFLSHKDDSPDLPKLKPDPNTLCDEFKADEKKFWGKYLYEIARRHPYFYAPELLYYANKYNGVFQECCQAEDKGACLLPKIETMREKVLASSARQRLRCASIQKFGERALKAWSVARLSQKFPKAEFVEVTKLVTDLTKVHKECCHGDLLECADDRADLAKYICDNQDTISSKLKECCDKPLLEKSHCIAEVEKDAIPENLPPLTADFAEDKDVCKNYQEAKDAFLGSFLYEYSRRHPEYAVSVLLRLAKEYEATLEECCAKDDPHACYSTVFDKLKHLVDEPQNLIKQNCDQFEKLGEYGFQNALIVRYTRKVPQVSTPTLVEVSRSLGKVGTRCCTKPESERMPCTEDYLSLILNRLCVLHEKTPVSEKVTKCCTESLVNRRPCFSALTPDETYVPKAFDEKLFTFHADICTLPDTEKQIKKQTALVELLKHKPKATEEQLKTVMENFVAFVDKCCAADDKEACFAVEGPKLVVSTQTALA

Molecule | inhibition of seeded Tau aggregation [1] | in vitro aggregation of alpha-synuclein (ThT fluorescence) [2] | Asyn fibril morphology (TEM) [2] | in vitro aggregation of amylin (final ThT fluorescence, t=50 h) [3] | Asyn oligomer formation (TEM) [2] | aggregation of bovine serum albumin (BSA) [4]
CC(C)CCCC/C=C/C=C\C(=O)NC(CC(=O)O)C(=O)NC1C(=O)NC(c2ccc(O)cc2)C(=O)NC(CCCN)C(=O)NC(C(C)O)C(=O)NC(c2ccc(O)cc2)C(=O)NC(c2ccc(O)cc2)C(=O)NC(C(C)O)C(=O)NC(CCCNC(N)=O)C(=O)NC(CC2CNC(=N)N2)C(=O)NC(c2ccc(O)cc2)C(=O)NC(CO)C(=O)NC(c2cc(Cl)c(O)c(Cl)c2)C(=O)NCC(=O)NC(CC2CNC(=N)N2)C(=O)NC(C)C(=O)NC(c2ccc(O)cc2)C(=O)OC1C (stereo not drawn) [Enduracidin A] ({Undeca(2Z,4E)dienoyl(10-Me)}-DT[Hpg][Orn]T[Hpg][Hpg]T[Cit][X4][Hpg]S[X5]G[X4]A[Hpg]; ester 2-C; configuration not given here) | showed inhibition of seeded Tau aggregation | inhibit the in vitro aggregation | shorter fibrils with a rougher surface | – | – | –
CCC(C)CCCC/C=C/C=C\C(=O)NC(CC(=O)O)C(=O)NC1C(=O)NC(c2ccc(O)cc2)C(=O)NC(CCCN)C(=O)NC(C(C)O)C(=O)NC(c2ccc(O)cc2)C(=O)NC(c2ccc(O)cc2)C(=O)NC(C(C)O)C(=O)NC(CCCNC(N)=O)C(=O)NC(CC2CNC(=N)N2)C(=O)NC(c2ccc(O)cc2)C(=O)NC(CO)C(=O)NC(c2cc(Cl)c(O)c(Cl)c2)C(=O)NCC(=O)NC(CC2CNC(=N)N2)C(=O)NC(C)C(=O)NC(c2ccc(O)cc2)C(=O)OC1C (stereo not drawn) [Enduracidin B] (X3-DT[Hpg][Orn]T[Hpg][Hpg]T[Cit][X4][Hpg]S[X5]G[X4]A[Hpg]; ester 2-C; configuration not given here) | – | inhibit the in vitro aggregation | shorter fibrils with a rougher surface | inhibit the in vitro aggregation of amylin | Asyn oligomer formation also competes with Asyn fibril formation | –
Cc1ccccc1CC(=O)NC(CC(N)=O)C(=O)NC1C(=O)NC(c2ccc(O)cc2)C(=O)NC(CCCN)C(=O)NC(C(C)O)C(=O)NC(c2ccc(O)cc2)C(=O)NC(c2ccc(O)cc2)C(=O)NC(C(C)O)C(=O)NC(Cc2ccccc2)C(=O)NC(CCCN)C(=O)NC(c2ccc(OC3OC(CO)C(O)C(O)C3OC3OC(CO)C(O)C(O)C3O)cc2)C(=O)NC(C(C)O)C(=O)NC(c2ccc(O)cc2)C(=O)NCC(=O)NC(CC(C)C)C(=O)NC(C)C(=O)NC(c2ccc(O)c(Cl)c2)C(=O)OC1C(N)=O (stereo not drawn) [NAI-603, Ramoplanin 2-methyl-phenyl derivative NAI-603] (X6-N[X1][Hpg][Orn]T[Hpg][Hpg]TF[Orn][X2]T[Hpg]GLA[ξPhg(3-Cl-4-OH)]; ester 2-C; configuration not given here) | – | – | – | inhibit the in vitro aggregation of amylin | – | –
CC(C)C/C=C/C=C\C(=O)NC(CC(N)=O)C(=O)NC1C(=O)NC(c2ccc(O)cc2)C(=O)NC(CCCN)C(=O)NC(C(C)O)C(=O)NC(c2ccc(O)cc2)C(=O)NC(c2ccc(O)cc2)C(=O)NC(C(C)O)C(=O)NC(Cc2ccccc2)C(=O)NC(CCCN)C(=O)NC(c2ccc(O)cc2)C(=O)NC(C(C)O)C(=O)NC(c2ccc(O)cc2)C(=O)NCC(=O)NC(CC(C)C)C(=O)NC(C)C(=O)NC(c2ccc(O)c(Cl)c2)C(=O)OC1C(N)=O (stereo not drawn) [Ramoplanin A2 Aglycon, Ramoplanin aglycon] ({Octa(2Z,4E)dienoyl(7-Me)}-N[X1][Hpg][Orn]T[Hpg][Hpg]TF[Orn][Hpg]T[Hpg]GLA[ξPhg(3-Cl-4-OH)]; ester 2-C; configuration not given here) | – | inhibit the in vitro aggregation | – | – | favors the formation of Asyn oligomers | –
CNC(CC(C)C)C(=O)NC1C(=O)NC(CC(N)=O)C(=O)NC2C(=O)NC3C(=O)NC(C(=O)NC(C(=O)O)c4cc(O)cc(O)c4-c4cc3ccc4O)C(O)c3ccc(c(Cl)c3)Oc3cc2cc(c3OC2OC(CO)C(O)C(O)C2OC2CC(C)(N)C(O)C(C)O2)Oc2ccc(cc2Cl)C1O (stereo not drawn) [Vancomycin, reference compound] | showed inhibition of seeded Tau aggregation | – | – | – | – | –
Teicoplanin [reference compound] | showed inhibition of seeded Tau aggregation | inhibits the in vitro aggregation | – | – | Asyn oligomer formation competes with Asyn fibril formation | inhibition of the aggregation
